Measurements: patent US20010006660A1, “LOW-RIGIDITY LIPOSOMAL FORMULATION” (priority 1999, published 2001)

How the values were obtained:
[1] = Phase transition / destabilization temperature by differential scan calorimetry; type: physicochemical
Experimental: The formulations of liposomes were assessed for their ability to fuse with bacteria. The liposomes were prepared as described above and contained different lipid mixtures. These lipid mixtures were dipalmitoylphosphatidylcholine (DPPC): dimirystoylphosphatidylglycerol (DMPG), DPPC: soybean 1-α-phosphatidylinositol, sodium salt, (PI), and 1,2-di-o-hexadecyl-sn-glycero-3-phosphocholine (DHPC): DMPG. All lipid mixtures were used at ratios of 10:1. PI is negatively charged with a phase transition temperature (Tc) of 23° C., while DHPC is neutral with a Tc of 42° C. All three formulations have a Tc of about 29.5° C. […] The bacterial strain used was Pseudomonas aeruginosa strain 429.
Different tobramycin-encapsulated liposomal formulations were prepared according to Example 1 and analyzed by differential scan colorimetry. Using differential scan calorimetry, the temperatures of phase transition (TC) were calculated for the tobramycin-liposomal formulations listed in Table 2. All these formulations were then listed in vitro to assess the antibiotic kinetics of liberation from the liposomes. In addition, these formulations were tested in a non-infected mouse model as previously described (Omri et al. 1994, Antimicrob. Agents Chemother. 38:1090-1095) to assess the persistence of the liposomes in the lung.

Xanthomonas maltophilia [2] = assay: In vitro bactericidal activity, viable bacterial counts in proteose peptone; type: cell-based; conditions: free tobramycin 3,12 μg/ml, liposomes entrapped tobramycin 3,08 μg/ml
Experimental: To evaluate the bactericidal efficacy of the liposonal tobramycin formulation produced according to the present invention (DPPC/DMPG), in vitro tests were performed against different clinical strains: […] To culture tubes containing proteose peptone (29 ml) a minimal number of 10^8 CFU of bacteria in logarithmic phase (1 ml) and of one of the following preparations (100 μl) were added at time zero: free tobramycin, control liposomes or PBS. Experiments were done in triplicate. At times 1, 3, 6, and 16 hours following the addition of antibiotic or controls, 2 ml of samples were collected and serial 10-fold dilutions were made and spread in triplicate on proteose peptone agar plates for gram negative strains and on […] for S. aureus. CFU were counted after 24-hour and 48-hourS incubations at 37° C. under 5% CO2. Counts were expressed in log CFU per ml of culture media.

[3] = tested on: Staphylococcus aureus (strain LSPQ 2499); assay: MIC of clinical strain; type: cell-based
Xanthomonas maltophilia [4] = assay: MIC of clinical strain; type: cell-based; conditions: Stenotrophomonas maltophilia
[5] = tested on: Escherichia coli (strain 1061 mn 88); assay: MIC of clinical strain; type: cell-based
[6] = tested on: Pseudomonas aeruginosa (strain 429); assay: MIC of clinical strain; type: cell-based
[7] = tested on: Pseudomonas aeruginosa PA 508 (mucoid phenotype); assay: Bactericidal activity in rat model of chronic pulmonary infection (agar beads); type: in vivo; conditions: Sprague-Dawley rats
Experimental: To evaluate the bactericidal efficacy of a liposomal aminoglycoside formulation produced according to the present invention, male, pathogen-free, Sprague-Dawley rats weighing 175 to 225 g (Charles River) were used. Chronic infection in lungs was established by intratracheal administration of 5×10^5 CFU of Pseudomonas aeruginosa PA 508 (mucoid phenotype) prepared in agar beads. After 3 days, three doses (600 μg) of free or liposome-encapsulated tobramycin were given intratracheally at intervals of 16 h. The lipid mixture were DPPC:DMPG at a molar ratio of 10:1 (formula no 1) and DPPC:DMPC at a molar ration of 15:1 (formula no 2). Sixteen hours after the last treatment, the animals were sacrificed and the entire lungs were removed aseptically, weighed, and homogeneized as described previously for mice. Serial 10-fold dilutions of the homogenates in cold PBS were made and spread in triplicate on proteose peptone agar plates. Identification of P. aeruginosa was confirmed by specific cultures. CFU were counted after 24 hour incubations at 37° C. under 5% CO^2. Counts were expressed in log CFU per pair of lungs. PBS and PBS-liposomes were used as controls. A second experiment to study the bactericidal effect of the liposomal tobramycin preparation, produced according to the present invention, was carried out as for Table 4 with the following modifications: 1) liposomes were prepared with a 15:1 molar ratio of DPPC:DMPG (formula no. 3); and 2) only two doses of 240 μg of free or liposome-encapsulated tobramycin were administered to the rats.

[8] = tested on: Burkholderia cepacia (strain ID-28369); assay: MIC of clinical strain; type: cell-based
[9] = two doses of 240 μg intratracheally, '<significant count' = none or only rare cfu (0 to 6) on plates

Molecule | phase transition temperature (Tc) [1] [°C] | Viable bacterial counts (cfu) (Xanthomonas maltophilia [2]; 0 h) | Viable bacterial counts (cfu) (Xanthomonas maltophilia [2]; 1 h after addition) | Viable bacterial counts (cfu) (Xanthomonas maltophilia [2]; 3 h after addition) | Viable bacterial counts (cfu) (Xanthomonas maltophilia [2]; 6 h after addition) | Viable bacterial counts (cfu) (Xanthomonas maltophilia [2]; 16 h after addition) | MIC [3] [µg/mL] | MIC (Xanthomonas maltophilia [4]) [µg/mL] | MIC [5] [µg/mL] | MIC [6] [µg/mL] | log cfu/pair of lungs ([7]; three doses (600 μg) intratracheally at intervals of 16 h, '<significant count' = none or only rare cfu (0 to 4) on plates) | cfu/pair of lungs ([7]; three doses (600 μg) intratracheally at intervals of 16 h, '<significant count' = none or only rare cfu (0 to 4) on plates, counts <30 not statistically significant) | cfu/pair of lungs [7, 9] | log cfu/pair of lungs [7, 9] | MIC [8] [µg/mL]
CCCCCCCCCCCCCCCCOC[C@H](COP(=O)([O-])OCC[N+](C)(C)C)OCCCCCCCCCCCCCCCC [DHPC, 1,2-di-o-hexadecyl-sn-glycero-3-phosphocholine] | 42 |  |  |  |  |  |  |  |  |  |  |  |  |  | 
NC[C@H]1O[C@H](O[C@H]2[C@H](O)[C@@H](O[C@H]3O[C@H](CO)[C@@H](O)[C@H](N)[C@H]3O)[C@H](N)C[C@@H]2N)[C@H](N)C[C@@H]1O [Free tobramycin, tobramycin] |  | 3,7 × 10^10 cfu | 3,00 × 10^12 cfu | 8,20 × 10^14 cfu | 7,80 × 10^16 cfu | 8,57 × 10^18 cfu | ≥ 9 | > 5 | ≥ 5 | ≥ 60 | 7.10 log cfu/pair of lungs | 1.25 × 10^7 cfu/pair of lungs | 1.07 × 10^6 cfu/pair of lungs | 6.03 log cfu/pair of lungs | ≥ 27
soybean 1-α-phosphatidylinositol, sodium salt [PI] | 23 |  |  |  |  |  |  |  |  |  |  |  |  |  | 
